Measured values taken from patent US20230365533A1, “BICYCLOHEPTANE PYRROLIDINE OREXIN RECEPTOR AGONISTS” (MERCK SHARP & DOHME CORP., priority 2021, published 2023).

Target: T1, human OX2R (Homo sapiens, UniProt O43614)
T1 construct: expressed in transfected cells; host or cells: CHO (Chinese hamster ovary) cells, grown under G418 selection
T1 sequence (O43614 1-444): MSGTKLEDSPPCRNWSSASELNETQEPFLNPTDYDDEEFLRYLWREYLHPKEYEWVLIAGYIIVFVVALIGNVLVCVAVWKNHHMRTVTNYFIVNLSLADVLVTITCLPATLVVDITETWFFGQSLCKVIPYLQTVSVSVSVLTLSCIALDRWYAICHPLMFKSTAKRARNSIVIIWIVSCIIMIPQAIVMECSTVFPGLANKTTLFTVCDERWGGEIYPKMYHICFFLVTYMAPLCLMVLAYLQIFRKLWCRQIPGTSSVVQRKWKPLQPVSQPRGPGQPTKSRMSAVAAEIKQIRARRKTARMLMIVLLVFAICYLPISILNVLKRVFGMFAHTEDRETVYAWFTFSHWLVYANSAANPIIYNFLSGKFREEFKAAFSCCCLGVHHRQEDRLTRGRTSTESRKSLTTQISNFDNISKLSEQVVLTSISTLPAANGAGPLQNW
Test: IPOne (IP-1) orexin receptor agonist assay in CHO cells expressing human OX2R
Type: cell-based
Settings: for IC50: IPOne assay, CHO cells expressing human OX2R, 2 hours incubation, read-out: hoX2R_IP IC50; for Emax: CHO, percent of mean max effect of a reference compound at 1 uM with 100% activity vs Orexin A, human OX2R
Description: The utility of the compounds in accordance with the present invention as orexin receptor OX1R and/or OX2R agonists may be readily determined without undue experimentation by methodology well known in the art. Both the OX1R and/or OX2R G-coupled protein receptors (GPCRs) couple through the Gaq signaling pathway, which ultimately promotes calcium mobilization via inositol triphosphate (IP3) production. The half-life of IP-3 is relatively short, being rapidly metabolized to inositol monophosphate (IP-1), which can be readily detected using a commercially available assay kit (IP-One; Cisbio; cat #621PAPEC) coupled with a cell line expressing the target receptor(s) of interest. The utility of the compounds in accordance with the present invention as orexin receptor OX1R and/or OX2R agonists may be determined utilizing this assay.
In a typical experiment, the OX1 and OX2 receptor agonist activity is determined in accordance with the following general experimental method. Chinese hamster ovary (CHO) cells expressing human OX1R and/or the human OX2R were grown in Iscove's modified DMEM containing glutaMAX™, 1% G418, 100 U/mL penicillin, 100 μg/mL streptomycin and 10% heat-inactivated qualified fetal bovine serum (FBS). The OX2R cells were seeded at 10,000 cells/well/50 μL and the OX1R cells were seeded at 20,000 cells/well/50 μL into 384-well white tissue culture plates (Greiner; cat #781080). All cell/media reagents were from GIBCO-Invitrogen Corp. The seeded cell plate(s) were incubated at 37° C. with 5% CO2 and 85% humidity for 20-24 hours. On the day of the assay, assay-ready compound plates were prepared using an acoustic liquid handler (ECHO; Labcyte), which dispensed sufficient volume of test compound stock (10 mM in DMSO) or 100% DMSO to prepare 10 point, ½-log dilutions in a final volume of 202.5 nL/well in all test wells of a 384-well diamond plate (Labcyte). Following completion of assay-ready plates, importantly, the next three steps were performed with minimal delay: 1) 20 μl of 1×stimulation buffer was added to the compound plate using a Multidrop Combi (small cassette, Thermo Fisher Scientific cat #24073290); 2) culture medium was removed from the cell plate using the Bluewasher plate washer (gentle spin; BlueCatBio); 3) 14 μl of compound/stimulation buffer mixture was added to the cell plate using a Bravo liquid handler (Agilent) prior to incubating cell plates at 37° C. with 5% CO2 and 85% humidity for 1 or 2 hours (OX1R and OX2R, respectively). During this incubation, IP-one detection reagents were prepared (38:1:1 lysis buffer:D2:AB-cryptate reagents). Six μL of mixed detection reagents were added to the cell plate using a Multidrop Combi (small cassette, Thermo Fisher Scientific cat #24073290) and incubated 60 minutes at room temperature in the dark. Fluorescence signal was detected using an Envision plate reader (Perkin Elmer) [LANCE/DELFIA Dual Enh (Em: APC 665; Ex: Cy5 620)].
For each compound, data were fit to a four parameter logistic fit (ActivityBase software) and the EC50 was reported as the inflection point of the resulting curve. Percent effect for each test compound was determined as the percentage of sample raw value/mean max effect, where the mean max effect was derived from the mean raw value of 32 control wells per assay plate (using Orexin A (cat #003-30) at 1 μM for human OX1R and a reference compound at 1 uM with 100% activity previously established by comparison to Orexin A for human OX2R). The intrinsic orexin receptor agonist activity of a compound which may be used in the present invention may be determined by these assays.

Row | Structure (SMILES) | IC50 | Emax
1 | COC(=O)N1[C@@H]2COC[C@@H]2C(NS(C)(=O)=O)[C@@H]1COC1CCC2(c3ncc(F)cn3)CC2C1 (mixture of isomers) [Example 134, methyl (2R,3aS,6aS)-2-(((6-(5-fluoropyrimidin-2-yl)bicyclo[4.1.0]heptan-3-yl)oxy)methyl)-3-(methylsulfonamido)hexahydro-1H-furo[3,4-b]pyrrole-1-carboxylate] | 83.7 nM | –
2 | COC(=O)N1[C@H](C)C[C@H](NS(=O)(=O)N(C)C)[C@@H]1COC1CCC2(c3cccc(F)c3)CC2C1 (mixture of isomers) [Example 3, methyl (2R,3S,5R)-3-((N,N-dimethylsulfamoyl)amino)-2-(((6-(3-fluorophenyl)bicyclo[4.1.0]heptan-3-yl)oxy)methyl)-5-methylpyrrolidine-1-carboxylate] | 187 nM | –
3 | COC(=O)N1CC[C@H](NS(C)(=O)=O)[C@@H]1COC1CCC2(c3ncccn3)CC2C1 (mixture of isomers) [Example 21, methyl (2R,3S)-3-(methylsulfonamido)-2-(((6-(pyrimidin-2-yl)bicyclo[4.1.0]heptan-3-yl)oxy)methyl)pyrrolidine-1-carboxylate] | 1620 nM | 94.6%
4 | COC(=O)N1[C@H](C)C[C@H](NS(=O)(=O)N(C)C)[C@@H]1COC1CCC2(c3cnccn3)CC2C1 (single isomer, unassigned) [Example 11] | 146 nM | –
5 | COC(=O)N1[C@H](C)C[C@H](NS(=O)(=O)N(C)C)[C@@H]1COC1CCC2(c3cnccn3)CC2C1 (single isomer, unassigned) [Example 14] | 161 nM | –
6 | CC(C)OC(=O)N1[C@H](C)C[C@H](NS(C)(=O)=O)[C@@H]1CO[C@H]1CC[C@@]2(c3ncc(F)cn3)C[C@H]2C1 (single isomer, unassigned) [Example 28] | 3.4 nM | –
7 | CC(C)OC(=O)N1[C@H](C)C[C@H](NS(C)(=O)=O)[C@@H]1CO[C@@H]1CC[C@]2(c3ncc(F)cn3)C[C@@H]2C1 (single isomer, unassigned) [Example 29] | 8 nM | –
8 | COC(=O)N1[C@H](C)C[C@H](NS(=O)(=O)C(F)F)[C@@H]1CO[C@H]1CC[C@@]2(c3ncccn3)C[C@H]2C1 (single isomer, unassigned) [Example 68] | 1.5 nM | –
9 | COC(=O)N1[C@H](C)C[C@H](NS(=O)(=O)C(F)F)[C@@H]1CO[C@@H]1CC[C@]2(c3ncccn3)C[C@@H]2C1 (single isomer, unassigned) [Example 69] | 20.4 nM | –
10 | COC(=O)N1[C@H](C)C[C@H](NS(=O)(=O)C(F)F)[C@@H]1CO[C@H]1CC[C@@]2(c3ncc(Cl)cn3)C[C@H]2C1 (single isomer, unassigned) [Example 78] | 1.2 nM | –
11 | COC(=O)N1[C@H](C)C[C@H](NS(C)(=O)=O)[C@@H]1CO[C@@H]1CC[C@]2(c3ncc(F)cn3)C[C@@H]2C1 (single isomer, unassigned) [Example 136] | 24.5 nM | –
12 | COC(=O)N1[C@H](C)C[C@H](NS(C)(=O)=O)[C@@H]1CO[C@H]1CC[C@@]2(c3ncc(F)cn3)C[C@H]2C1 (single isomer, unassigned) [Example 137] | 1.4 nM | –
13 | COC(=O)N1[C@H](C)C[C@H](NS(C)(=O)=O)[C@@H]1CO[C@@H]1CC[C@]2(c3ncc(Cl)cn3)C[C@@H]2C1 (single isomer, unassigned) [Example 141] | 86.4 nM | –
14 | COC(=O)N1[C@H](C)C[C@H](NS(C)(=O)=O)[C@@H]1CO[C@H]1CC[C@@]2(c3ncc(Cl)cn3)C[C@H]2C1 (single isomer, unassigned) [Example 142] | 2.8 nM | –
15 | COC(=O)N1[C@H](C)C[C@H](NS(C)(=O)=O)[C@@H]1CO[C@H]1CC[C@@]2(c3nccs3)C[C@H]2C1 (single isomer, unassigned) [Example 146] | 50.7 nM | –
16 | COC(=O)N1[C@H](C)C[C@H](NS(=O)(=O)N(C)C)[C@@H]1COC1CCC2(c3ncc(F)cn3)CC2C1 (single isomer, unassigned) [Example 167] | 575 nM | 74.4%
17 | CC(C)OC(=O)N1[C@H](C)C[C@H](NS(=O)(=O)N(C)C)[C@@H]1CO[C@@H]1CC[C@]2(c3ncccn3)C[C@@H]2C1 (single isomer, unassigned) [Example 170] | 5.2 nM | –
18 | CC(C)OC(=O)N1[C@H](C)C[C@H](NS(=O)(=O)N(C)C)[C@@H]1CO[C@H]1CC[C@@]2(c3ncccn3)C[C@H]2C1 (single isomer, unassigned) [Example 171] | 2.3 nM | –
19 | COC(=O)N1[C@H](C)C[C@H](NS(=O)(=O)N(C)C)[C@@H]1COC1CCC2(c3cc(F)cc(F)c3)CC2C1 (stereo partly drawn) [Example 4, methyl (2R,3S,5R)-2-(((6-(3,5-difluorophenyl)bicyclo[4.1.0]heptan-3-yl)oxy)methyl)-3-((N,N-dimethylsulfamoyl)amino)-5-methylpyrrolidine-1-carboxylate] | 604 nM | –
20 | COC(=O)N1[C@H](C)C[C@H](NS(=O)(=O)N(C)C)[C@@H]1COC1CCC2(c3ccc(C#N)cc3)CC2C1 (stereo partly drawn) [Example 5, methyl (2R,3S,5R)-2-(((6-(4-cyanophenyl)bicyclo[4.1.0]heptan-3-yl)oxy)methyl)-3-((N,N-dimethylsulfamoyl)amino)-5-methylpyrrolidine-1-carboxylate] | 278 nM | –
21 | COC(=O)N1[C@H](C)C[C@H](NS(=O)(=O)N(C)C)[C@@H]1COC1CCC2(c3ncccn3)CC2C1 (stereo partly drawn) [Example 6, methyl (2R,3S,5R)-3-((N,N-dimethylsulfamoyl)amino)-5-methyl-2-(((6-(pyrimidin-2-yl)bicyclo[4.1.0]heptan-3-yl)oxy)methyl)pyrrolidine-1-carboxylate] | 0.94 nM | –
22 | COC(=O)N1[C@H](C)C[C@H](NS(=O)(=O)N(C)C)[C@@H]1COC1CCC2(c3ncccn3)C(C1)C2(F)F (stereo partly drawn) [Example 7, methyl (2R,3S,5R)-2-(((7,7-difluoro-6-(pyrimidin-2-yl)bicyclo[4.1.0]heptan-3-yl)oxy)methyl)-3-((N,N-dimethylsulfamoyl)amino)-5-methylpyrrolidine-1-carboxylate] | 9390 nM | –
23 | COC(=O)N1[C@H](C)C[C@H](NS(=O)(=O)N(C)C)[C@@H]1COC1CCC2(c3ccccn3)CC2C1 (stereo partly drawn) [Example 9, methyl (2R,3S,5R)-3-((N,N-dimethylsulfamoyl)amino)-5-methyl-2-(((6-(pyridin-2-yl)bicyclo[4.1.0]heptan-3-yl)oxy)methyl)pyrrolidine-1-carboxylate] | 28.8 nM | –
24 | COC(=O)N1[C@H](C)C[C@H](NS(=O)(=O)N(C)C)[C@@H]1COC1CCC2(c3cnccn3)CC2C1 (stereo partly drawn) [Example 10, methyl (2R,3S,5R)-3-((N,N-dimethylsulfamoyl)amino)-5-methyl-2-(((6-(pyrazin-2-yl)bicyclo[4.1.0]heptan-3-yl)oxy)methyl)pyrrolidine-1-carboxylate] | 323 nM | –
25 | COC(=O)N1[C@H](C)C[C@H](NS(=O)(=O)N(C)C)[C@@H]1COC1CCC2(c3cnccn3)CC2C1 (stereo partly drawn) [Example 13, methyl (2R,3S,5R)-3-((N,N-dimethylsulfamoyl)amino)-5-methyl-2-(((6-(pyrazin-2-yl)bicyclo[4.1.0]heptan-3-yl)oxy)methyl)pyrrolidine-1-carboxylate] | 461 nM | –
